Assay results taken from article PMC11484510, “Antibacterial activity of structurally diverse natural prenylated isobavachalcone derivatives” (RSC Advances, 2024).
Counter-ions that a name gives are not always drawn. Like-named read-outs stand apart in the source and are kept apart here.

Tests used:
[1] = tested on: S. aureus; assay: Combinational study (checkerboard microdilution) with standard drugs; format: cell-based
Procedure: The Fractional Inhibitory Concentration Index (FICI) was calculated for each test compound and reference drug to find the combinational effect.
In a 96-well flat bottom plate, the reference drug with 4× MIC was serially diluted horizontally. The test compounds with 4× MIC were serially diluted two-fold outside the plate in 1.5 mL Eppendorf's using Mueller Hinton Broth (MHB). These two serially diluted compounds were combined to create drug-compound combinations in the plate. The reference drug (horizontally) and tested compounds (vertically) alone were serially diluted for MIC determination. 100 μL of the standardized bacterial inoculum with a turbidity equivalent to a 0.5 McFarland standard were diluted 1 : 100 in Mueller Hinton Broth and inoculated in the plates. The plates were incubated for 24 hours at 37 °C. After incubation, 10 μL of freshly prepared Alamar blue (Himedia) was added to each well of the plate, and the plates were further incubated at 37 °C for 30 minutes. After incubation, the plates were visually observed. […] The FICI was calculated using the formula FICI = FIC of compound + FIC of drug. The calculation followed is FICI (CA/(MICA)) + (CB/(MICB)), where CA is the MIC of the compound in combination, CB is the MIC of the drug in combination, and MICA and MICB are the MIC values of individual compounds and drugs, respectively. The range selection followed the interpretation criteria. The FICI range of 0.5 to 4 indicates indifference, ≤ or =0.5 indicates synergy and >4 indicates antagonism.[57]

[2] = tested on: P. aeruginosa ATCC 27853; assay: MIC, broth microdilution (CLSI), Alamar blue; format: cell-based; settings: P. aeruginosa ATCC 27853, 24 hours at 37 °C, read-out: Minimum inhibitory concentration (MIC) P. aeruginosa
Text: (§1) The bacterial strains S. aureus ATCC 29213, MRSA ATCC 15187, E. coli ATCC 25922, and P. aeruginosa ATCC 27853 were obtained from ATCC (American Type Culture Collection). Cation-adjusted Mueller–Hinton broth (MHB; Becton–Dickinson, Cockeysville, MD) was used to determine the minimum inhibitory concentration (MIC). Mueller–Hinton agar (MHA; Becton–Dickinson) was used for minimum bactericidal concentration (MBC) studies. Alamar blue (Himedia) was used to detect the MIC value.
(§2) The antibacterial activity of the compounds against S. aureus ATCC 29213, MRSA ATCC 15187, E. coli ATCC 25922, and P. aeruginosa ATCC 27853 was determined through a broth microdilution method according to the guidelines of the Clinical and Laboratory Standards Institute (CLSI).[50] […] Growth control and media control were employed along with 2% DMSO as vehicle control.
(§3) In a 96-well flat bottom plate, the test compounds were two-fold serially diluted in Mueller Hinton Broth (MHB). The final concentrations of the compounds ranged from 100 to 0.08 μM. 100 μL of standardized bacterial inoculum with turbidity equivalent to 0.5 McFarland standard (1.5 × 10^8 CFU mL^−1) was diluted 1 : 100 (1.5 × 10^6 CFU mL^−1) in Mueller Hinton Broth and inoculated in the plates.[51] The plates were incubated for 24 hours at 37 °C. After incubation, 10 μL of freshly prepared Alamar blue (Himedia) was added to each well of the plate, and plates were further incubated at 37 °C for 30 minutes. After incubation, the fluorescence was measured at excitation/emission of 540–570/580–610 nm. The percentage inhibition and viability were calculated for the controls, and the Gompertz curve was utilized to estimate the minimum inhibitory concentration.

[3] = tested on: E. coli ATCC 25922; assay: MIC, broth microdilution (CLSI), Alamar blue; format: cell-based; settings: E. coli ATCC 25922, 24 hours at 37 °C, read-out: Minimum inhibitory concentration (MIC) E. coli
Text: as §1, §2, §3

[4] = tested on: S. aureus ATCC 29213; assay: MIC, broth microdilution (CLSI), Alamar blue; format: cell-based; settings: S. aureus ATCC 29213, 24 hours at 37 °C, read-out: Minimum inhibitory concentration (MIC) S. aureus
Text: as §1, §2, §3

[5] = tested on: MRSA ATCC 15187; assay: MIC, broth microdilution (CLSI), Alamar blue; format: cell-based, Methicillin-resistant S. aureus; settings: MRSA ATCC 15187, 24 hours at 37 °C, read-out: Minimum inhibitory concentration (MIC) MRSA
Text: as §1, §2, §3

[6] = Pseudomonas aeruginosa, ATCC27853, 24 h
[7] = Staphylococcus aureus, ATCC29213

| Structure (SMILES) | MIC combination (drug) ([1]; MIC of ciprofloxacin in combination with IBC, S. aureus) | MIC combination (drug) ([1]; MIC of ciprofloxacin in combination with IBC-2, S. aureus) | MIC combination (drug) ([1]; MIC of ciprofloxacin in combination with IBC-3, S. aureus) | MIC [2] | MIC [2, 6] | MIC [3] | MIC ([3]; Escherichia coli, ATCC25922) | MIC [4] | MIC [4, 7] | MIC [5] | MIC ([5]; Staphylococcus aureus) |
| --- | --- | --- | --- | --- | --- | --- | --- | --- | --- | --- | --- |
| O=C(O)c1cn(C2CC2)c2cc(N3CCNCC3)c(F)cc2c1=O [Ciprofloxacin, ciprofloxacin hydrochloride monohydrate, reference compound] | 0.156 µM | 0.3125 µM | 0.3125 µM | – | – | – | – | – | – | – | – |
| COc1ccc(/C=C/C(=O)c2ccc(OC)c(CC=C(C)C)c2OC)cc1 [IBC-4, (E)-1-(2,4-dimethoxy-3-(3-methylbut-2-en-1-yl)phenyl)-3-(4-methoxyphenyl)prop-2-en-1-one] | – | – | – | >100 µM | > 100 µM | >100 µM | > 100 µM | >100 µM | > 100 µM | >100 µM | > 100 µM |
| CC(C)=CCc1c(OCC(=O)N2CCOCC2)ccc(C(=O)/C=C/c2ccc(OCC(=O)N3CCOCC3)cc2)c1OCC(=O)N1CCOCC1 [IBC-5, (E)-2,2′-((2-(3-methylbut-2-en-1-yl)-4-(3-(4-(2-morpholino-2-oxoethoxy)phenyl)acryloyl)-1,3-phenylene)bis(oxy)) bis (1-morpholinoethan-1-one)] | – | – | – | >100 µM | > 100 µM | >100 µM | > 100 µM | >100 µM | > 100 µM | >100 µM | > 100 µM |
| CC(C)=CCc1c(O)ccc(C(=O)/C=C/c2ccc(OCC(=O)Nc3ccc(Cl)cn3)cc2)c1O [IBC-6, (E)-N-(5-chloropyridin-2-yl)-2-(4-(3-(2,4-dihydroxy-3-(3-methylbut-2-en-1-yl)phenyl)-3-oxoprop-1-en-1-yl)phenoxy) acetamide] | – | – | – | >100 µM | > 100 µM | >100 µM | > 100 µM | >100 µM | > 100 µM | >100 µM | > 100 µM |
| CC(C)=CCc1c(O)ccc(C(=O)/C=C/c2ccc(OCC(=O)Nc3c(C)n(C)n(-c4ccccc4)c3=O)cc2)c1O [IBC-7, (E)-2-(4-(3-(2,4-dihydroxy-3-(3-methylbut-2-en-1-yl)phenyl)-3-oxoprop-1-en-1-yl)phenoxy)-N-(1,5-dimethyl-3-oxo-2-phenyl-2,3-dihydro-1H-pyrazol-4-yl) acetamide] | – | – | – | >100 µM | > 100 µM | >100 µM | > 100 µM | >100 µM | > 100 µM | >100 µM | > 100 µM |
| CC(C)=CCc1c(OCC(=O)N2CCCC2)ccc(C(=O)/C=C/c2ccc(OCC(=O)N3CCCC3)cc2)c1O [IBC-8, (E)-1-(2-hydroxy-3-(3-methylbut-2-en-1-yl)-4-(2-oxo-2-(pyrrolidin-1-yl)ethoxy)phenyl)-3-(4-(2-oxo-2-(pyrrolidin-1-yl)ethoxy)phenyl) prop-2-en-1-one] | – | – | – | >100 µM | > 100 µM | >100 µM | > 100 µM | >100 µM | > 100 µM | >100 µM | > 100 µM |
| CC(C)=CCc1c(O)ccc(C(=O)/C=C/c2ccc(OCC(=O)Nc3cc(C)[nH]n3)cc2)c1O [IBC-9, (E)-2-(4-(3-(2,4-dihydroxy-3-(3-methylbut-2-en-1-yl)phenyl)-3-oxoprop-1-en-1-yl)phenoxy)-N-(5-methyl-1H-pyrazol-3-yl)acetamide] | – | – | – | >100 µM | > 100 µM | >100 µM | > 100 µM | >100 µM | > 100 µM | >100 µM | > 100 µM |
| CC(C)=CCc1c(O)ccc(C(=O)/C=C/c2ccc(OCC(=O)N3CCSCC3)cc2)c1O [IBC-10, (E)-1-(2,4-dihydroxy-3-(3-methylbut-2-en-1-yl)phenyl)-3-(4-(2-oxo-2-thiomorpholinoethoxy)phenyl)-prop-2-en-1-one] | – | – | – | >100 µM | > 100 µM | >100 µM | > 100 µM | >100 µM | > 100 µM | >100 µM | > 100 µM |
| NC[C@H]1O[C@H](O[C@H]2[C@H](O)[C@@H](O[C@H]3O[C@H](CO)[C@@H](O)[C@H](N)[C@H]3O)[C@H](N)C[C@@H]2N)[C@H](O)[C@@H](O)[C@@H]1O [Kanamycin, kanamycin sulfate, reference compound] | – | – | – | – | 2.8 µM | – | – | – | – | – | – |
